Article PMC12423301, “Astrocytic monoamine oxidase B (MAOB)–gamma-aminobutyric acid (GABA) axis as a molecular brake on repair following spinal cord injury” (Signal Transduction and Targeted Therapy, 2025)
“Also recorded” adds a separate entry of the source.

Legend:
[1] = Body weight of rats on medicated drinking water; assay type: in vivo, rat
Experimental: (S)-2-(((4’-Trifluoromethylbiphenyl-4-yl)methyl)amino)propanamide methane-sulfonate (KDS2010) was dissolved in distilled water. For SD rats, KDS2010 was administered via the drinking water ad libitum. […] To evaluate dose-dependent effects, additional groups received 20 mg/kg/day or 30 mg/kg/day starting at PI 2 weeks. To achieve consistent exposure across animals, we meticulously monitored the daily water intake and body weight of each rat throughout the study. As shown in the Extended Data (Supplementary Table 1), water consumption was calculated weekly via a formula based on body weight (e.g., d.w = weight × 0.09 at week 0; gradually tapering to weight × 0.075 by weeks 8–9). Importantly, all animals were confirmed to have consumed the entirety of the provided medicated water each day, ensuring full ingestion of the intended dose (10 mg/kg/day for the majority of groups, and 20/30 mg/kg/day for the dose-dependent experiments).

[2] = system: rat SCI model; test: EC / LFB staining of rat spinal cord tissue; assay type: in vivo, Sprague-Dawley (SD) rats
Experimental: EC staining was performed as previously described.[71] The tissue sections were placed on a microscope slide, allowed to dry for 2 h, and then immersed in acetone for 5 min. The slides were incubated for 10 min at 22 ± 2 °C and then treated with EC solution (MERCK, Kenilworth, NJ, USA) for 30 min at 22 ± 2 °C. After the sections were rinsed with running water, they were placed on 5% iron alum (Sigma-Aldrich, F3629) until the gray matter was observed. The sections were differentiated using borax-ferricyanide solution (Borax, Sigma-Aldrich, 71997; Potassium ferricyanide, Sigma-Aldrich, 702587) and dehydrated using graded ethanol solutions of 70%, 90%, and 100% which were changed twice. The sections were mounted with permanent mounting medium (Fisher Scientific, Hampton, NH, USA) and finally observed under a light microscope (DM 2500, Leica, Wetzlar, Germany). LFB staining was performed as previously described.[70] The myelin sheath of axons in the tissue sections were stained with 1% luxol fast blue (Sigma-Aldrich, L0294) at 60 °C overnight. The sections were rinsed with lithium carbonate (Sigma-Aldrich, 255823) solution and differentiated by 70% alcohol and then observed under a light microscope (IX71, Olympus, Tokyo, Japan).

[3] = system: APP/PS1 transgenic mice; test: Tonic GABA current, neuronal firing and DAO compensation in APP/PS1 mice; assay type: in vivo, mouse
[4] = in vivo; conditions: both, cynomolgus monkey, po
[5] = GLP toxicity tests in rats

CS(=O)(=O)O.C[C@H](NCc1ccc(-c2ccc(C(F)(F)F)cc2)cc1)C(N)=O [KDS2010, (S)-2-(((4’-Trifluoromethylbiphenyl-4-yl)methyl)amino)propanamide methane-sulfonate]
Weekly change in body weight ([1]; SCI/KDS 2w 20mpk, 0w): 0.00 g
Weekly change in body weight ([1]; SCI/KDS 2w 20mpk, 1w): 29.33 g
Weekly change in body weight ([1]; SCI/KDS 2w 20mpk, 2w): 13.61 g
Weekly change in body weight ([1]; SCI/KDS 2w 20mpk, 3w): 54.00 g
Weekly change in body weight ([1]; SCI/KDS 2w 20mpk, 4s): 16.28 g
Weekly change in body weight ([1]; SCI/KDS 2w 20mpk, 5s): 31.61 g
Weekly change in body weight ([1]; SCI/KDS 2w 20mpk, 6s): 12.56 g
Weekly change in body weight ([1]; SCI/KDS 2w 20mpk, 7w): 24.17 g
Weekly change in body weight ([1]; SCI/KDS 2w 20mpk, 8w): 13.00 g
Weekly change in body weight ([1]; SCI/KDS 2w 20mpk, 9w): 10.89 g
Weekly change in body weight ([1]; SCI/KDS 2w 30mpk, 0w): 0.00 g
Weekly change in body weight ([1]; SCI/KDS 2w 30mpk, 1w): 34.43 g
Weekly change in body weight ([1]; SCI/KDS 2w 30mpk, 2w): 10.86 g
Weekly change in body weight ([1]; SCI/KDS 2w 30mpk, 3w): 39.90 g
Weekly change in body weight ([1]; SCI/KDS 2w 30mpk, 4s): 17.36 g
Weekly change in body weight ([1]; SCI/KDS 2w 30mpk, 5s): 22.40 g
Weekly change in body weight ([1]; SCI/KDS 2w 30mpk, 6s): 10.84 g
Weekly change in body weight ([1]; SCI/KDS 2w 30mpk, 7w): 19.91 g
Weekly change in body weight ([1]; SCI/KDS 2w 30mpk, 8w): 17.56 g
Weekly change in body weight ([1]; SCI/KDS 2w 30mpk, 9w): 3.43 g
Weekly change in body weight ([1]; SCI/KDS 2w, 0w): 0.00 g
Weekly change in body weight ([1]; SCI/KDS 2w, 1w): 47.67 g
Weekly change in body weight ([1]; SCI/KDS 2w, 2w): 16.00 g
Weekly change in body weight ([1]; SCI/KDS 2w, 3w): 33.67 g
Weekly change in body weight ([1]; SCI/KDS 2w, 4s): 31.00 g
Weekly change in body weight ([1]; SCI/KDS 2w, 5s): 31.33 g
Weekly change in body weight ([1]; SCI/KDS 2w, 6s): 16.67 g
Weekly change in body weight ([1]; SCI/KDS 2w, 7w): 18.33 g
Weekly change in body weight ([1]; SCI/KDS 2w, 8w): 11.67 g
Weekly change in body weight ([1]; SCI/KDS 2w, 9w): 7.17 g
Weekly change in body weight ([1]; SCI/KDS 2w, 10w): 14.50 g
Weekly change in body weight ([1]; SCI/KDS 2w, 11w): 8.00 g
Weekly change in body weight ([1]; SCI/KDS 2w, 12w): 1.50 g
Weekly change in body weight ([1]; SCI/KDS 2w, 13w): 7.50 g
Weekly change in body weight ([1]; SCI/KDS 6w, 0w): 0.00 g
Weekly change in body weight ([1]; SCI/KDS 6w, 1w): 24.00 g
Weekly change in body weight ([1]; SCI/KDS 6w, 2w): 27.50 g
Weekly change in body weight ([1]; SCI/KDS 6w, 3w): 36.00 g
Weekly change in body weight ([1]; SCI/KDS 6w, 4s): 31.50 g
Weekly change in body weight ([1]; SCI/KDS 6w, 5s): 14.50 g
Weekly change in body weight ([1]; SCI/KDS 6w, 6s): 13.00 g
Weekly change in body weight ([1]; SCI/KDS 6w, 7w): 17.50 g
Weekly change in body weight ([1]; SCI/KDS 6w, 8w): 7.00 g
Weekly change in body weight ([1]; SCI/KDS 6w, 9w): 13.00 g
Weekly change in body weight ([1]; SCI/KDS 6w, 10w): 11.00 g
Weekly change in body weight ([1]; SCI/KDS 6w, 11w): 8.00 g
Weekly change in body weight ([1]; SCI/KDS 6w, 12w): 7.00 g
Weekly change in body weight ([1]; SCI/KDS 6w, 13w): 8.00 g
Weekly change in body weight ([1]; SCI/KDS 1d, 0w): 0.00 g
Weekly change in body weight ([1]; SCI/KDS 1d, 1w): -44.55 g
Weekly change in body weight ([1]; SCI/KDS 1d, 2w): 21.82 g
Weekly change in body weight ([1]; SCI/KDS 1d, 3w): 23.03 g
Weekly change in body weight ([1]; SCI/KDS 1d, 4s): 50.91 g
Weekly change in body weight ([1]; SCI/KDS 1d, 5s): 28.03 g
Weekly change in body weight ([1]; SCI/KDS 1d, 6s): 16.82 g
Weekly change in body weight ([1]; SCI/KDS 1d, 7w): 19.85 g
Weekly change in body weight ([1]; SCI/KDS 1d, 8w): 14.70 g
Weekly change in body weight ([1]; SCI/KDS 1d, 9w): 7.88 g
Weekly change in body weight ([1]; Sham/KDS 2w, 0w): 0.00 g
Weekly change in body weight ([1]; Sham/KDS 2w, 1w): 33.00 g
Weekly change in body weight ([1]; Sham/KDS 2w, 2w): 17.00 g
Weekly change in body weight ([1]; Sham/KDS 2w, 3w): 32.00 g
Weekly change in body weight ([1]; Sham/KDS 2w, 4s): 31.00 g
Weekly change in body weight ([1]; Sham/KDS 2w, 5s): 21.00 g
Weekly change in body weight ([1]; Sham/KDS 2w, 6s): 8.00 g
Weekly change in body weight ([1]; Sham/KDS 2w, 7w): 25.00 g
Weekly change in body weight ([1]; Sham/KDS 2w, 8w): 10.00 g
Weekly change in body weight ([1]; Sham/KDS 2w, 9w): 10.00 g
Weekly change in body weight ([1]; Sham/KDS 1d, 0w): 0.00 g
Weekly change in body weight ([1]; Sham/KDS 1d, 1w): 26.67 g
Weekly change in body weight ([1]; Sham/KDS 1d, 2w): 3.33 g
Weekly change in body weight ([1]; Sham/KDS 1d, 3w): 30.00 g
Weekly change in body weight ([1]; Sham/KDS 1d, 4s): 50.00 g
Weekly change in body weight ([1]; Sham/KDS 1d, 5s): 25.00 g
Weekly change in body weight ([1]; Sham/KDS 1d, 6s): 21.67 g
Weekly change in body weight ([1]; Sham/KDS 1d, 7w): 18.33 g
Weekly change in body weight ([1]; Sham/KDS 1d, 8w): 8.33 g
Weekly change in body weight ([1]; Sham/KDS 1d, 9w): 23.33 g
tissue recovery (total cord area, myelinated area) ([2]; 10, 20, and 30 mpk, PI 10w): significant tissue recovery
total spinal cord, myelinated, gray matter areas and cavity size (EC staining) ([2]; SCI + KDS 2w vs SCI + V, PI 10w): significantly recovered
total spinal cord and myelinated areas ([2]; SCI + KDS 1 d/Re, PI 10w): significantly recovered
total spinal cord and myelinated areas ([2]; SCI+KDS 6w vs SCI+V, PI 14w): tendency toward larger; also recorded: increasing trend
tonic GABA current in granule cells of the dentate gyrus ([3]; 1 mg/kg and 10 mg/kg vs induced control group): dose-dependent reduction
neuronal firing ([3]; 4-week repeated dosing test, at 2 weeks and 4 weeks): maintained at a level similar to that of the normal group
DAO (diamine oxidase) compensatory mechanism ([3]; long-term administration): did not induce
NOAEL at 4 weeks [4]: 40 mg/kg
human equivalent dose (HED) of MTD ([5]; from rat MTD): 6774.2 mg/60kg
histopathology (kidneys, bladder, testis, epididymis and lungs) ([5]; oral 30, 50, 75 and 100 mg/kg once daily for 4 weeks): histopathological changes
mortality ([5]; oral 50-200 mg/kg daily for 2 weeks): no deaths
